According to patent publication US6339088B1, “Composition for treatment of external secretion disorders except hypol acrimation” (R-Tech Ueno. Ltd., priority 1999, dated 2002):

Experiments:
diabetic patient = experiment: Saliva secretion in a diabetic patient after instillation of 0.3% eye drops; assay type: in vivo, human; settings: 0.3% eye drops instilled four times a day, sixth day after start of administration
From the text: [3-(4-Bromo-2-fluorobenzyl)-7-chloro-2,4-dioxo-1,2,3,4-tetrahydroquinazolin-1-yl]acetate, a compound represented by the general formula (II) having aldose reductase-inhibiting effect as an active ingredient was used for preparation of a 0.3% eye drops.
The 0.3% eye drops was instilled to a diabetic patient four times a day.

Male Sprague-Dawley rats = experiment: Effect on saliva secretion in rats (filter-paper infiltration distance); assay type: in vivo, rat; settings: 50 μL of 0.3% solution intraorally three times a day on Day 1 and 2, measured Day 3 one hour after administration
Description: [3-(4-Bromo-2-fluorobenzyl)-7-chloro-2,4-dioxo-1,2,3,4-tetrahydroquinazolin-1-yl]acetate, a compound represented by the general formula (II) having aldose reductase-inhibiting effect as an active ingredient was used for preparation of a 0.3% solution.
Male Sprague-Dawley rats (aged 7 weeks) were used. The rats were intraorally administered with 50 μL of the 0.3% solution or distilled water three times a day (10:00, 14:00, 18:00) on Day 1 and Day 2. On Day 3, the time upon lapse of one hour after the administration at 10:00 and 14:00, a strip of filter-paper (Schirmer Tear Production Measuring Strips: SHOWA YAKUHIN KAKO CO., LTD.) with the length of 37 mm and width of 5 mm was inserted between the lower teeth gums and the lower jaw of the rat to absorb the saliva into the filter-paper. The infiltration distance of the saliva into the filter-paper was measured every 1 minute for 5 minutes.

## O=C(O)Cn1c(=O)n(Cc2ccc(Br)cc2F)c(=O)c2ccc(Cl)cc21 [formula (II), [3-(4-bromo-2-fluorobenzyl)-7-chloro-2,4-dioxo-1,2,3,4-tetrahydroquinazolin-1-yl]acetate]
Diabetic patient
  saliva secretion: obvious sthenia of saliva secretion
Male Sprague-Dawley rats; after 1 min.
  The infiltration distance of the saliva into filter-paper, mm, mean ± S.E., after 1 min.: 8.1 ± 1.5 mm
Male Sprague-Dawley rats; after 2 min.
  The infiltration distance of the saliva into filter-paper, mm, mean ± S.E., after 2 min.: 10.6 ± 1.8 mm
Male Sprague-Dawley rats; after 3 min., * P<0.05 vs control
  The infiltration distance of the saliva into filter-paper, mm, mean ± S.E., after 3 min.: 12.6 ± 2.0* mm
Male Sprague-Dawley rats; after 4 min., * P<0.05 vs control
  The infiltration distance of the saliva into filter-paper, mm, mean ± S.E., after 4 min.: 13.6 ± 2.1* mm
Male Sprague-Dawley rats; after 5 min.
  The infiltration distance of the saliva into filter-paper, mm, mean ± S.E., after 5 min.: 14.5 ± 2.3 mm
